Laboratory results as given in ChEMBL document CHEMBL3991943, “Pharmaceutical formulations comprising salts of a protein kinase inhibitor and methods of using same” (2013).

Key:
[1] = Solubility of the compound in glycerol; assay type: physicochemical
OVCAR-3 [2] = assay: Induction of DNA damage in human OVCAR3 cells assessed as increase in gamma-H2AX levels at 10 uM in presence of topotecan; assay type: functional
Mus musculus = assay: Toxicity in nude mouse xenografted with human OVCAR3 cells assessed as mortality at 100 to 200 mg/kg, po qd measured on day 5,6,7,20,27 during compound dosing in presence of cisplatin dosed every 7 days for 28 days; assay type: organism-based; settings: in vivo
OVCAR-3 [3] = assay: Antitumor activity against human OVCAR3 cells xenografted in athymic nude mouse assessed as tumor growth at 100 to 200 mg/kg, po qd administered for 3 days in presence of 5 mg/kg cisplatin dosed every 7 days for 28 days (reference value: 78.04 mm3/day); assay type: functional
A549 [4] = assay: Suppression of carboplatin induced Rad51 expression in human A549 cells at 0.71 uM after 24 hrs by probing blot analysis; assay type: functional; settings: A549, 24 h
A549 [5] = assay: Suppression of carboplatin induced Rad51 expression in human A549 cells at 3.82 uM after 24 hrs by probing blot analysis; assay type: functional; settings: A549, 24 h
[6] = Cmax in female rat at 5 mg/kg, iv at 5 mins; assay type: ADME, organism-based; design: dose 5 mg/kg, route intravenous; settings: in vivo
[7] = Tmax in male rat at 5 mg/kg, iv; assay type: ADME, organism-based; settings: in vivo
[8] = Tmax in rat at 25 mg/kg administered via oral gavage; assay type: ADME, organism-based; settings: in vivo
Rattus norvegicus [9] = assay: Acute toxicity in Sprague-Dawley rat assessed as clinical abnormalities at 100 to 2000 mg/kg administered as single dose via oral gavage measured 1 to 72 hrs post dose; assay type: organism-based; settings: in vivo
Canis familiaris [10] = assay: Acute toxicity in dog at 30 to 2000 mg/kg, po administered as single dose capsule measured over 24 hrs; assay type: organism-based, Canis lupus familiaris; settings: in vivo
Canis familiaris [11] = assay: Acute toxicity in dog assessed as mortality at 30 to 2000 mg/kg, po administered as single dose capsule measured over 24 hrs; assay type: organism-based, Canis lupus familiaris; settings: in vivo
Rattus norvegicus [12] = assay: Chronic toxicity in male rat assessed as hunched posture at 20 to 200 mg/kg/day, po administered for 28 days; assay type: organism-based; settings: in vivo, 672 h
Rattus norvegicus [13] = assay: Chronic toxicity in female rat assessed as hunched posture at 6 to 100 mg/kg/day, po administered for 28 days; assay type: organism-based; settings: in vivo, 672 h
Rattus norvegicus [14] = assay: Chronic toxicity in male rat assessed as soft feces at 20 to 200 mg/kg/day, po administered for 28 days; assay type: organism-based; settings: in vivo, 672 h
Rattus norvegicus [15] = assay: Chronic toxicity in female rat assessed as sporadic occurrence of hair loss at 6 to 100 mg/kg/day, po administered for 28 days; assay type: organism-based; settings: in vivo, 672 h
Rattus norvegicus [16] = assay: Chronic toxicity in female rat assessed as weight gain at 6 to 100 mg/kg/day, po administered for 28 days measured during compound dosing; assay type: organism-based; settings: in vivo, 672 h
Rattus norvegicus [17] = assay: Chronic toxicity in male rat assessed as decrease in food consumption at 200 mg/kg/day, po administered for 28 days; assay type: organism-based; settings: in vivo, 672 h
Rattus norvegicus [18] = assay: Chronic toxicity in female rat assessed as decrease in food consumption at 60 to 100 mg/kg/day, po administered for 28 days; assay type: organism-based; settings: in vivo, 672 h
Rattus norvegicus [19] = assay: Chronic toxicity in male rat assessed as decrease in food consumption at 200 mg/kg/day, po administered for 28 days measured after cessation of dosing; assay type: organism-based; settings: in vivo, 672 h
Rattus norvegicus [20] = assay: Chronic toxicity in male rat assessed as ophthalmologic changes at 200 mg/kg/day, po administered for 28 days; assay type: organism-based; settings: in vivo, 672 h
Rattus norvegicus [21] = assay: Chronic toxicity in female rat assessed as hematological changes at 60 to 100 mg/kg/day, po administered for 28 days; assay type: organism-based; settings: in vivo, 672 h
Rattus norvegicus [22] = assay: Chronic toxicity in male rat assessed as decrease in glucose levels at 200 mg/kg/day, po administered for 28 days; assay type: organism-based; settings: in vivo, 672 h
Rattus norvegicus [23] = assay: Chronic toxicity in male rat assessed as decrease in triglyceride levels at 200 mg/kg/day, po administered for 28 days; assay type: organism-based; settings: in vivo, 672 h
Rattus norvegicus [24] = assay: Chronic toxicity in male rat assessed as sporadic alterations in organ weight at 200 mg/kg/day, po administered for 28 days; assay type: organism-based; settings: in vivo, 672 h
Rattus norvegicus [25] = assay: Chronic toxicity in female rat assessed as sporadic alterations in organ weight at 60 to 100 mg/kg/day, po administered for 28 days; assay type: organism-based; settings: in vivo, 672 h
Rattus norvegicus [26] = assay: Chronic toxicity in male rat assessed as effect on organs at 200 mg/kg/day, po administered for 28 days; assay type: organism-based; settings: in vivo, 672 h
Rattus norvegicus [27] = assay: Chronic toxicity in female rat assessed as effect on organs at 60 to 100 mg/kg/day, po administered for 28 days; assay type: organism-based; settings: in vivo, 672 h
[28] = Chronic toxicity in po dosed female rat assessed as no observable adverse effect level administered daily for 28 days; assay type: organism-based; settings: in vivo
Rattus norvegicus [29] = assay: Chronic toxicity in po dosed male rat assessed as severely toxic dose administered daily for 28 days; assay type: organism-based; settings: in vivo, 672 h
Canis familiaris [30] = assay: Chronic toxicity in male dog assessed as increase in soft feces/diarrhea at 100 to 300 mg/kg/day, po administered for 28 days; assay type: organism-based, Canis lupus familiaris; settings: in vivo, 672 h
Canis familiaris [31] = assay: Chronic toxicity in male dog assessed as discolored feces at 30 to 300 mg/kg/day, po administered for 28 days; assay type: organism-based, Canis lupus familiaris; settings: in vivo, 672 h
Canis familiaris [32] = assay: Chronic toxicity in male dog assessed as mucoid feces at 30 to 300 mg/kg/day, po administered for 28 days; assay type: organism-based, Canis lupus familiaris; settings: in vivo, 672 h
Canis familiaris [33] = assay: Chronic toxicity in dog assessed as mortality up to 300 mg/kg/day, po administered for 28 days; assay type: organism-based, Canis lupus familiaris; settings: in vivo, 672 h
Canis familiaris [34] = assay: Chronic toxicity in female dog assessed as increase in emesis at 300 mg/kg/day, po administered for 28 days; assay type: organism-based, Canis lupus familiaris; settings: in vivo, 672 h
Canis familiaris [35] = assay: Chronic toxicity in female dog assessed as soft feces/diarrhea at 100 to 300 mg/kg/day, po administered for 28 days; assay type: organism-based, Canis lupus familiaris; settings: in vivo, 672 h
Canis familiaris [36] = assay: Chronic toxicity in dog assessed as effect on food consumption up to 300 mg/kg/day, po administered for 28 days measured during compound dosing; assay type: organism-based, Canis lupus familiaris; settings: in vivo, 672 h
Canis familiaris [37] = assay: Chronic toxicity in dog assessed as ophthalmic lesions up to 300 mg/kg/day, po administered for 28 days; assay type: organism-based, Canis lupus familiaris; settings: in vivo, 672 h
Canis familiaris [38] = assay: Chronic toxicity in dog assessed as electrocardiogram changes up to 300 mg/kg/day, po administered for 28 days; assay type: organism-based, Canis lupus familiaris; settings: in vivo, 672 h
Canis familiaris [39] = assay: Chronic toxicity in dog assessed as hematological changes up to 300 mg/kg/day, po administered for 28 days measured during compound dosing; assay type: organism-based, Canis lupus familiaris; settings: in vivo, 672 h
Canis familiaris [40] = assay: Chronic toxicity in dog assessed as urinalysis parameters up to 300 mg/kg/day, po administered for 28 days measured during compound dosing; assay type: organism-based, Canis lupus familiaris; settings: in vivo, 672 h
Canis familiaris [41] = assay: Chronic toxicity in dog assessed as effect on serum troponin 1 levels up to 300 mg/kg/day, po administered for 28 days measured during compound dosing; assay type: organism-based, Canis lupus familiaris; settings: in vivo, 672 h
Canis familiaris [42] = assay: Chronic toxicity in dog assessed as histopathological alterations in cardiac tissues up to 300 mg/kg/day, po administered for 28 days; assay type: organism-based, Canis lupus familiaris; settings: in vivo, 672 h

For Cl.S=C(NCc1ccc2c(c1)OCO2)N1CCN(c2ncnc3c2oc2ccccc23)CC1 [AMUVATINIB HYDROCHLORIDE], the solubility [1] was 4000 µg/mL, the Activity (OVCAR-3 [2]) was 113% and the Activity (Mus musculus) was “Toxic”. The Activity (OVCAR-3 [3]) was 10.22 mm3/day, the inhibition at 0.71 µM (A549 [4]) was 26% and the inhibition at 3.82 µM (A549 [5]) was 42%. It also gave a Cmax [6] of 371 ng/mL, a Tmax [7] of 5 min and a Tmax [8] of 30 to 720 min. The Activity (Rattus norvegicus [9]) was “Non-Toxic”, the Activity (Canis familiaris [10]) was “Non-Toxic” and the Activity (Canis familiaris [11]) was “Non-Toxic”. The Activity (Rattus norvegicus [12]) was “Toxic”, the Activity (Rattus norvegicus [13]) was “Toxic” and the Activity (Rattus norvegicus [14]) was “Toxic”. For the same compound, the Activity (Rattus norvegicus [15]) was “Toxic”, the Activity (Rattus norvegicus [16]) was “Toxic” and the Activity (Rattus norvegicus [17]) was “Toxic”. The Activity (Rattus norvegicus [18]) was “Toxic”, the Activity (Rattus norvegicus [19]) was “Non-Toxic” and the Activity (Rattus norvegicus [20]) was “Non-Toxic”. The Activity (Rattus norvegicus [21]) was “Non-Toxic”, the Activity (Rattus norvegicus [22]) was “Toxic” and the Activity (Rattus norvegicus [23]) was “Toxic”. For the same compound, the Activity (Rattus norvegicus [24]) was “Toxic”, the Activity (Rattus norvegicus [25]) was “Toxic” and the Activity (Rattus norvegicus [26]) was “Non-Toxic”. The Activity (Rattus norvegicus [27]) was “Non-Toxic”, the NOAEL at 672 h [28] was 20 mg/kg/day and the Activity (Rattus norvegicus [29]) was 200 mg/kg/day. The Activity (Canis familiaris [30]) was “Toxic”, the Activity (Canis familiaris [31]) was “Toxic” and the Activity (Canis familiaris [32]) was “Toxic”. For the same compound, the Activity (Canis familiaris [33]) was “Non-Toxic”, the Activity (Canis familiaris [34]) was “Toxic” and the Activity (Canis familiaris [35]) was “Toxic”. The Activity (Canis familiaris [36]) was “Non-Toxic”, the Activity (Canis familiaris [37]) was “Non-Toxic” and the Activity (Canis familiaris [38]) was “Non-Toxic”. The Activity (Canis familiaris [39]) was “Non-Toxic”, the Activity (Canis familiaris [40]) was “Non-Toxic” and the Activity (Canis familiaris [41]) was “Non-Toxic”. For the same compound, the Activity (Canis familiaris [42]) was “Non-Toxic”.
